# Earlier results, collected in patent publication US7396658B2, “Methods for screening HIF like ouabain-resistant Na+—K+-ATPase agents” (priority 1998, dated 2008).
# Legend:
# [1] = molecular target: T1, ouabain-resistant α1 isoform (obtained from rat kidney) (Rattus norvegicus, UniProt P06685); conditions: α1 from rat kidney vs α2/α3 from rat brain axolemma; factor greater
# T1 construct: the ouabain-resistant α1 isoform (obtained from rat kidney); host or cells: rat kidney tissue
# [2] = molecular target: ouabain-resistant Na^+—K^+-ATPase (Rattus norvegicus, UniProt P06685); conditions: generally needed
compound,measurement,setting,value
C[C@@H]1O[C@@H](O[C@H]2C[C@@H](O)[C@]3(CO)[C@H]4[C@H](O)C[C@]5(C)[C@@H](C6=CC(=O)OC6)CC[C@]5(O)[C@@H]4CC[C@]3(O)C2)[C@H](O)[C@H](O)[C@H]1O [ouabain],"concentrations of ouabain required for inactivation of the ouabain-resistant α1 isoform, relative to that for inactivating the ouabain-sensitive α2/α3 isoforms",[1],10^2-10^3
same,concentration needed to inhibit ouabain-resistant Na+-K+-ATPases relative to that inhibiting ouabain sensitive Na+-K+-ATPase,[2],≥ 100 fold
